These results are taken from patent US20210267996A1, “Compounds for inhibition of inflammation” (Children`s Medical Center Corporation, priority 2018, published 2021).

In one test the test system is NF-κB activation. In words: Inflammasome priming by LPS in THP-1 cells (immunoblot). The test is classed as cell-based, human. The following applies: for NF-κB activation / pro-IL-1β induction: 30 μM, 1 hr before LPS; for NLRP3 induction: 1 hour before LPS. As for the experimental part:
(§1) Immunoblot analysis: cell extracts were prepared using RIPA buffer (50 mM Tris-HCl pH 7.4, 150 mM NaCl, 1 mM EDTA, 1% Triton X-100, 0.1% SDS, 0.5% deoxycholate) supplemented with a complete protease inhibitor cocktail (Roche) and a PhosSTOP phosphatase inhibitor cocktail (Roche). Samples were subjected to SDS-PAGE and the resolved proteins were then transferred to a PVDF membrane (Millipore). Immunoblots were probed with indicated antibodies and visualized using a SuperSignal West Pico chemiluminescence ECL kit (Pierce).
Because both disulfiram and Bay 11-7082 non-specifically modify reactive Cys, their effects on the steps leading to pyroptosis and inflammatory caspase activation were next analyzed. Some of the genes that participate in the canonical inflammasome pathway are not expressed in unstimulated cells and their expression needs to be induced, often by binding to cell surface sensors of pathogen and danger-associated molecular patterns, such as Toll-like receptors (TLR), in a process called priming. Bay 11-7082 is known to inhibit NF-κB activation, a key transcription factor in priming. The effect of disulfiram and Bay 11-7082 on priming were first examined (FIG. 45). NF-κB activation was assessed by examining IκBα phosphorylation and degradation and RelA (p65) phosphorylation. Induction of pro-IL-1β was assessed by immunoblot for pro-IL1β protein. In the absence of disulfiram or Bay 11-7082, phosphorylation of p65 was first detected 30 min after adding LPS and persisted for 4 hrs, phosphorylation and reduced IκBα. were detected 1 hr after adding LPS, and increased pro-IL-1β was detected 4 hrs after adding LPS. […] Thus, disulfiram and Bay 11-7082 both inhibit priming.
(§2) Cell death was determined by CytoTox96 assay. […] Cell death was determined by CytoTox96 assay. […] Shown are immunoblots of whole cell lysates harvested 0.5 hr later. […] Representative images of ASC specks (arrowheads) and mean±s.d. percent of cells with ASC specks analyzed 20 min later (FIG. 47). Whole cell lysates (WCL) and culture supernatants (Sup) were harvested 30 min after adding nigericin and immunoblotted with the indicated antibodies (FIG. 50). Caspase-1 activity was assayed 30 min after adding nigericin using a cell-permeable fluorescence dye FAM-YVAD-FMK (FIG. 52). […] Representative images of ASC specks (arrowheads) and mean±s.d. percent of cells with ASC specks analyzed 20 min later (FIGS. 48 and 49). Whole cell lysates (WCL) and culture supernatants (Sup), harvested 30 min after adding nigericin, were analyzed by immunoblot (FIG. 51). […] The Figures show representative confocal microscopy images and quantification of proportion of cells with GSDMD membrane staining and pyroptotic bubbles. Arrows indicate GSDMD staining of pyroptotic bubbles. […] FIGS. 57 and 58, dose response curve of the effect of Bay 11-7082 on caspase-1 (FIG. 57) and caspase-11 (FIG. 58) activity against a fluorescent peptide substrate. FIGS. 59 and 60 show MS/MS spectra of the Cys191-containing GSDMD peptide […] (FIG. 60). FIGS. 61 and 62 show dose response curve of the effect of Bay 11-7082 on liposome leakage induced by 0.3 μM human GSDMD-3C (FIG. 61) or mouse GSDMA3-3C (FIG. 62) plus 0.15 μM 3C protease. […] 2-fold dilutions of Bay 11-7082 from 5-40 μM were used. Graphs show the mean±s.d; data are representative of three independent experiments. *P<0.05, **P<0.01.
To elucidate the cellular mechanism of pyroptosis inhibition by disulfiram, its effects on the entire inflammasome activation pathway were analyzed. Some of the genes that participate in the canonical inflammasome pathway are not expressed in unstimulated cells and their expression needs to be induced, often by binding to cell surface sensors of pathogen and danger-associated molecular patterns, such as Toll-like receptors (TLR), in a process called priming. […]

The test system of test [1] is caspase-1, GSDMD, and pro-IL-1β. In words: Caspase-1, GSDMD, pro-IL-1β cleavage and IL-1β secretion by immunoblot, THP-1. The test is classed as cell-based, human. As to conditions: 30 μM; for caspase-1, GSDMD and pro-IL-1β cleavage: 30 min after nigericin. On the procedure:
as §1
To assess which steps in NLRP3-mediated inflammation were inhibited post ASC speck formation, LPS-primed THP-1 cells were treated with vehicle or 30 μM z-VAD-fmk, disulfiram or Bay 11-7082 1 hr before adding nigericin, and cleavage and activation of caspase-1, GSDMD, and pro-IL-1β were analysed by immunoblot of whole cell lysates 30 min later (FIG. 50). Secretion of processed IL-1β was also assessed by immunoblot of culture supernatants. […] Because immunoblots are not quantitative, caspase-1 activity 30 min after adding nigericin was also assessed using a fluorescent substrate in intact cells. […] Next, the effect of z-VAD-fmk, disulfiram and Bay 11-7082 on LPS+nigericin-induced GSDMD pore formation was assessed by immunofluorescence microscopy using a monoclonal antibody that was generated that recognizes both uncleaved GSDMD and its pore form (FIGS. 53, 54, and 64-66). In the absence of any inhibitor, the GSDMD antibody stained both the cytosol and the plasma membrane of LPS plus nigericin treated cells, which formed characteristic pyroptotic bubbles (See Reference 10). […] Thus, disulfiram and Bay 11-7082 inhibit multiple steps leading to canonical inflammasome-induced pyroptosis and inflammatory cytokine release, including priming, inflammasome assembly, inflammatory caspase activation, pro-inflammatory cytokine processing and GSDMD pore formation.
as §2, with “substrate.” for “substrate. FIGS. 59 and 60 show MS/MS spectra of the Cys191-containing GSDMD peptide”
Canonical inflammasome assembly activates caspase-1, which cleaves pro-IL-1β and GSDMD, and the latter is needed to release processed IL-1β and to induce pyroptosis. […]

“Also recorded” adds a separate entry of the source.

Take `Cc1ccc(S(=O)(=O)/C=C/C#N)cc1` [Bay 11-7082]: in the test on NF-κB activation, the NF-κB activation entry is “had a stronger effect”, the pro-IL-1β induction result is recorded as “blocked pro-IL-1β induction” and the NLRP3 induction entry was “blocked”. Moreover, in test [1], the “processed IL-1β in culture supernatants” value is given as “only detected in the culture supernatants in the absence of any inhibitor”; the “caspase-1, GSDMD and pro-IL-1β cleavage” value is “dramatically reduced”.
Turning to `CCN(CC)C(=S)SSC(=S)N(CC)CC` [C-23, Tetraethylthiuram disulfide], in the test on NF-κB activation, the NF-κB activation result is “inhibited NF-κB activation” and the NLRP3 induction result is reported as “blocked”. For the same molecule, the pro-IL-1β induction entry in the test on NF-κB activation (listed as disulfiram) is “blocked pro-IL-1β induction”. Further, in test [1] (listed as disulfiram), the “caspase-1, GSDMD and pro-IL-1β cleavage” value was “dramatically reduced; also recorded: processing was reduced”; the “processed IL-1β in culture supernatants” value is recorded as “only detected in the culture supernatants in the absence of any inhibitor; also recorded: completely inhibited cytokine release”. Besides, the “processing of caspase-1, GSDMD and pro-IL-1β” value in test [1] (60 min after nigericin) is reported as “caught up with what was detected in the absence of inhibitors”.
